In PubChem BioAssay AID1963825 (Molecular Pharmacology Branch, DTP, NCI, 2024):

Assay: Anticancer human tumor 997537-175-T-J1-PDC patient-derived colon adenocarcinoma cell line growth inhibition [POLQ]
Conditions: 997537-175-T-J1-PDC complex spheroid viability, combination with POLQ inhibitors; for IC50: curve of first compound; for viability, T/C: stronger effect = lower value
Protocol: Multicellular complex tumor spheroid response to Polymerase (POL) inhibitors (novobiocin, ART-558, RP6685) in combination with a variety of drugs and investigational agents in selected tumor cell lines
The POL inhibitors (novobiocin, ART-558, and RP6685) were evaluated both individually and in combination with standard of care and investigational anticancer small molecules within a complex spheroid model of solid tumors. . Complex spheroids include a stromal component modeled by human endothelial cells (HUVEC) and fibroblasts modeled by human mesenchymal stem cells (MSCs). The concentration ranges selected for each drug and investigational agent were based upon clinically achievable concentrations if the clinical Cmax of the agent was known.
Compounds. The drugs and investigational agents: novobiocin (NSC847541), ART-558 (NSC835418), RP-6685 (NSC848927), peposertib (NSC802822), ceralasertib (NSC780249), elimusertib (NSC800525), camonsertib (NSC841442), AZD-1390 (NSC803789), olaparib (NSC753686), talazoparib (NSC767125), rucaparib (NSC756644), sotorasib (NSC818433), MRTX-1133 (NSC836407), SN-38 (NSC673596), topotecan (NSC609699), epotoside (NSC141540), doxorubicin (NSC123127), gemcitabine (NSC613327), 5-fluorouracil (NSC19893), paclitaxel (NSC125973), vemurafenib (NSC761431), MSA-2 (NSC828583), SN-011 (NSC837082), adavosertib (NSC754352), prexasertib (NSC758257), carboplatin (NSC241240) and oxaliplatin (NSC266046), were obtained from the National Cancer Institute (NCI) Developmental Therapeutics Program Chemical Repository (21). The FDA-approved anticancer drug set is available from the Developmental Therapeutics Program at https://dtp.cancer.gov/organization/dscb/obtaining/. […] The stock solutions were prepared in dimethyl sulfoxide (DMSO, Sigma-Aldrich, St. Louis, MO, cat. D2650), except for the platinum compounds which were prepared in saline (Quality Biological, Gaithersburg, MD, cat. 114-055-101), at 800-fold the tested concentration and stored at -70 degrees C prior to their use. All drugs and investigational agents were tested over a range starting from a high concentration at or near the clinical Cmax and decreasing in half-log increments. If the clinical Cmax for an agent had not been determined, the highest concentration tested was 10 microM, except for SN-38, which was tested at a high concentration of 1 microM.
Cell Culture. All cells were maintained in an incubator at 37 degrees C and 5% CO2 with 95% humidity. The PDC lines were cultured according to standard operating procedures established by the NCI PDMR (https://pdmr.cancer.gov). Table 3 of the manuscript, lists the cell lines along with the number of the three cell types plated to form the mct-spheroids and media for tumor cell growth. After thawing, all PDC lines, except 997537-175-T-J1-PDC and 415267-285-R-J2-PDC, were cultured in Matrigel-coated flasks prepared with a working solution of 1X Ham's F-12 nutrient mix, without supplementation (Thermo Fisher Scientific, cat. 11765054), 100 U/mL penicillin-streptomycin (Thermo Fisher Scientific, cat. 15140122), and 2.5% Matrigel (Corning Inc., Corning, NY, cat. 354248) for the first three passages. The two PDC lines 997537-175-T-J1-PDC and 415267-285-R-J2-PDC were cultured on uncoated flasks. The 857933-349-R-J2-PDC line was cultured in 6C/Colon 1B media containing advanced DMEM/F-12 (Thermo Fisher Scientific, cat. 12634028), 10 mM HEPES (Thermo Fisher Scientific, cat. 15630080), 1X GlutaMAX supplement (Thermo Fisher Scientific, cat. 35050061), 0.1 mg/mL primocin (InvivoGen, San Diego, CA, cat. ant-pm-2), 10% defined fetal bovine serum, heat inactivated (HyClone Laboratories Inc., Logan, UT, cat. SH30070.03HI), 50% L-WRN conditioned media (ATCC, cat. CRL-3276), 1.25 mM N-Acetyl-L-cysteine (Sigma-Aldrich, cat. A9165), 10 mM nicotinamide (Sigma-Aldrich, cat. N0636), 1X B-27 supplement (Thermo Fisher Scientific, cat. 17504044), 1X N-2 supplement (Thermo Fisher Scientific, cat. […]
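Also: luminescence signal used as a surrogate for viable cells; spheroids exposed to drugs for seven days before readout.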

CC[C@@]1(O)C(=O)OCc2c1cc1n(c2=O)Cc2cc3c(CN(C)C)c(O)ccc3nc2-1 + Cc1cccc(N(C)C(=O)C2C(O)CCN2c2nc(C)cc(C(F)(F)F)c2C#N)c1
IC50 (second compound 0.0316 µM): > 100 nM | IC50 (second compound 0.1 µM): > 100 nM | IC50 (second compound 0.316 µM): > 100 nM | IC50 (second compound 1 µM): > 100 nM | IC50 (second compound 3.16 µM): > 100 nM | IC50 (second compound 10 µM): > 100 nM | viability, T/C (second compound 0.0316 µM, first compound 0.000316 µM): 108% | viability, T/C (second compound 0.0316 µM, first compound 0.001 µM): 102% | viability, T/C (second compound 0.0316 µM, first compound 0.00316 µM): 102% | viability, T/C (second compound 0.0316 µM, first compound 0.01 µM): 83.1% | viability, T/C (second compound 0.0316 µM, first compound 0.0316 µM): 87.9% | viability, T/C (second compound 0.0316 µM, first compound 0.1 µM): 71.3% | viability, T/C (second compound 0.1 µM, first compound 0.000316 µM): 94.9% | viability, T/C (second compound 0.1 µM, first compound 0.001 µM): 92.4% | viability, T/C (second compound 0.1 µM, first compound 0.00316 µM): 92.6% | viability, T/C (second compound 0.1 µM, first compound 0.01 µM): 105% | viability, T/C (second compound 0.1 µM, first compound 0.0316 µM): 96.2% | viability, T/C (second compound 0.1 µM, first compound 0.1 µM): 64.3% | viability, T/C (second compound 0.316 µM, first compound 0.000316 µM): 90% | viability, T/C (second compound 0.316 µM, first compound 0.001 µM): 100% | viability, T/C (second compound 0.316 µM, first compound 0.00316 µM): 107% | viability, T/C (second compound 0.316 µM, first compound 0.01 µM): 95.1% | viability, T/C (second compound 0.316 µM, first compound 0.0316 µM): 103% | viability, T/C (second compound 0.316 µM, first compound 0.1 µM): 73.7% | viability, T/C (second compound 1 µM, first compound 0.000316 µM): 108% | viability, T/C (second compound 1 µM, first compound 0.001 µM): 96.7% | viability, T/C (second compound 1 µM, first compound 0.00316 µM): 97.5% | viability, T/C (second compound 1 µM, first compound 0.01 µM): 111% | viability, T/C (second compound 1 µM, first compound 0.0316 µM): 83.1% | viability, T/C (second compound 1 µM, first compound 0.1 µM): 66.7% | viability, T/C (second compound 3.16 µM, first compound 0.000316 µM): 113% | viability, T/C (second compound 3.16 µM, first compound 0.001 µM): 101% | viability, T/C (second compound 3.16 µM, first compound 0.00316 µM): 101% | viability, T/C (second compound 3.16 µM, first compound 0.01 µM): 89.3% | viability, T/C (second compound 3.16 µM, first compound 0.0316 µM): 89.8% | viability, T/C (second compound 3.16 µM, first compound 0.1 µM): 72% | viability, T/C (second compound 10 µM, first compound 0.000316 µM): 98% | viability, T/C (second compound 10 µM, first compound 0.001 µM): 104% | viability, T/C (second compound 10 µM, first compound 0.00316 µM): 102% | viability, T/C (second compound 10 µM, first compound 0.01 µM): 97.3% | viability, T/C (second compound 10 µM, first compound 0.0316 µM): 82.5% | viability, T/C (second compound 10 µM, first compound 0.1 µM): 68.9%
